In ChEMBL document CHEMBL5724914, “Linking interpersonal differences in gut microbiota composition and drug biotransformation activity” (2024):

Legend:
[1] = (§1) The drug is tested on Z-013 corresponding to rabbit gut metagenome with ENA study accession number: PRJEB37062 and ENA sample accession number: ERS12561813 for biotransformation under anaerobic condition. The drug concentrations were measured over 9 timepoints collected between 0 and 24 hours of incubation by liquid-chromatography-coupled mass spectrometry (LC–MS); conditions: 2 µM
[2] = human gut metagenome, 24 h, 2 µM
[3] = as §1, with “WLS-240” for “Z-013”, “human” for “rabbit”, “ERS12561773” for “ERS12561813”; conditions: 2 µM
[4] = as §1, with “Z-017” for “Z-013”, “mouse” for “rabbit”, “ERS12561816” for “ERS12561813”; conditions: 2 µM
[5] = as §1, with “WLS-098” for “Z-013”, “human” for “rabbit”, “ERS12561754” for “ERS12561813”; conditions: 2 µM
[6] = human gut metagenome, 24 h, 2 µM; remark: listed apart in the source
[7] = human gut metagenome, 24 h, 2 µM; remark: listed apart in the source
[8] = human gut metagenome, 24 h, 2 µM; remark: listed apart in the source
[9] = human gut metagenome, 24 h, 2 µM; remark: listed apart in the source
[10] = human gut metagenome, 24 h, 2 µM; remark: listed apart in the source
[11] = as §1, with “Z-009” for “Z-013”, “pig” for “rabbit”, “ERS12561809” for “ERS12561813”; conditions: 2 µM
[12] = as §1, with “Z-005” for “Z-013”, “to” for “to rabbit gut”, “ERS12561805” for “ERS12561813”; conditions: 2 µM
[13] = as §1, with “Z-010” for “Z-013”, “to” for “to rabbit gut”, “ERS12561810” for “ERS12561813”; conditions: 2 µM
[14] = human gut metagenome, 24 h, 2 µM; remark: listed apart in the source
[15] = as §1, with “Z-002” for “Z-013”, “ERS12561802” for “ERS12561813”; conditions: 2 µM
[16] = human gut metagenome, 24 h, 2 µM; remark: listed apart in the source
[17] = human gut metagenome, 24 h, 2 µM; remark: listed apart in the source
[18] = as §1, with “Z-022” for “Z-013”, “mouse” for “rabbit”, “ERS12561821” for “ERS12561813”; conditions: 2 µM
[19] = as §1, with “Z-028” for “Z-013”, “mouse” for “rabbit”, “ERS12561827” for “ERS12561813”; conditions: 2 µM
Further: call rule not given here.

Row | Structure (SMILES) | Bacterial Biotransformation [1] | Bacterial Biotransformation [2] | Bacterial Biotransformation [3] | Bacterial Biotransformation [4] | Bacterial Biotransformation [5] | Bacterial Biotransformation [6] | Bacterial Biotransformation [7] | Bacterial Biotransformation [8] | Bacterial Biotransformation [9] | Bacterial Biotransformation [10] | Bacterial Biotransformation [11] | Bacterial Biotransformation [12] | Bacterial Biotransformation [13] | Bacterial Biotransformation [14] | Bacterial Biotransformation [15] | Bacterial Biotransformation [16] | Bacterial Biotransformation [17] | Bacterial Biotransformation [18] | Bacterial Biotransformation [19]
1 | CCC1(c2ccc(N)cc2)CCC(=O)NC1=O (centres undefined) [AMINOGLUTETHIMIDE] | Compound NOT metabolized | Compound NOT metabolized | Compound NOT metabolized | Compound NOT metabolized | Compound NOT metabolized | Compound NOT metabolized | Compound NOT metabolized | Compound NOT metabolized | Compound NOT metabolized | Compound NOT metabolized | Compound metabolized | Compound NOT metabolized | Compound NOT metabolized | Compound NOT metabolized | Compound NOT metabolized | Compound NOT metabolized | Compound NOT metabolized |  | 
2 | CN1C(=O)CCS(=O)(=O)C1c1ccc(Cl)cc1 (centres undefined) [CHLORMEZANONE] | Compound NOT metabolized | Compound NOT metabolized | Compound metabolized | Compound NOT metabolized | Compound NOT metabolized | Compound NOT metabolized | Compound NOT metabolized | Compound NOT metabolized | Compound NOT metabolized | Compound NOT metabolized | Compound NOT metabolized | Compound NOT metabolized | Compound NOT metabolized | Compound NOT metabolized | Compound NOT metabolized | Compound NOT metabolized | Compound NOT metabolized | Compound NOT metabolized | Compound NOT metabolized
3 | CC(=O)O[C@]1(C(C)=O)CC[C@H]2[C@@H]3C=C(Cl)C4=CC(=O)[C@@H]5C[C@@H]5[C@]4(C)[C@H]3CC[C@@]21C [CYPROTERONE ACETATE] |  | Compound metabolized | Compound metabolized |  | Compound metabolized | Compound metabolized | Compound metabolized | Compound metabolized | Compound metabolized | Compound metabolized | Compound metabolized | Compound metabolized | Compound metabolized | Compound metabolized | Compound metabolized | Compound metabolized | Compound metabolized |  | 
4 | CN1C[C@H](C(=O)N[C@]2(C)O[C@@]3(O)[C@@H]4CCCN4C(=O)[C@H](Cc4ccccc4)N3C2=O)C=C2c3cccc4[nH]cc(c34)C[C@H]21.CN1C[C@H](C(=O)N[C@]2(C)O[C@@]3(O)[C@@H]4CCCN4C(=O)[C@H](Cc4ccccc4)N3C2=O)C=C2c3cccc4[nH]cc(c34)C[C@H]21.O=C(O)C(O)C(O)C(=O)O [ERGOTAMINE TARTRATE] |  | Compound NOT metabolized | Compound metabolized |  | Compound metabolized | Compound metabolized | Compound metabolized | Compound NOT metabolized | Compound metabolized | Compound metabolized |  | Compound NOT metabolized |  | Compound metabolized |  | Compound NOT metabolized | Compound metabolized |  | 
5 | COC(=O)C1=C(C)NC(C)=C(C(=O)OC(C)C)C1c1cccc2nonc12 (centres undefined) [ISRADIPINE] |  | Compound metabolized | Compound metabolized |  | Compound metabolized | Compound metabolized | Compound metabolized | Compound metabolized | Compound metabolized | Compound metabolized |  |  |  | Compound metabolized | Compound metabolized | Compound metabolized | Compound metabolized |  | 
6 | CN1C(=O)CC(C)(c2ccccc2)C1=O (centres undefined) [METHSUXIMIDE] | Compound NOT metabolized | Compound NOT metabolized | Compound metabolized | Compound NOT metabolized | Compound NOT metabolized | Compound NOT metabolized | Compound NOT metabolized | Compound NOT metabolized | Compound NOT metabolized | Compound NOT metabolized | Compound NOT metabolized | Compound NOT metabolized | Compound NOT metabolized | Compound metabolized | Compound NOT metabolized | Compound NOT metabolized | Compound NOT metabolized | Compound metabolized | Compound NOT metabolized
7 | COc1ccccc1N1CCN(CC(O)COc2cccc3ccccc23)CC1 (centres undefined) [NAFTOPIDIL] | Compound NOT metabolized | Compound NOT metabolized | Compound NOT metabolized | Compound NOT metabolized | Compound NOT metabolized | Compound NOT metabolized | Compound NOT metabolized | Compound NOT metabolized | Compound NOT metabolized | Compound NOT metabolized | Compound NOT metabolized | Compound NOT metabolized | Compound NOT metabolized | Compound NOT metabolized | Compound NOT metabolized | Compound NOT metabolized | Compound NOT metabolized | Compound metabolized | Compound metabolized
8 | CN(C(=O)CN(CCO)CC(=O)N(C)C(C)(C)Cc1ccccc1)C(C)(C)Cc1ccccc1 [OXETHAZAINE] |  | Compound metabolized | Compound metabolized |  | Compound metabolized | Compound metabolized | Compound metabolized | Compound metabolized | Compound metabolized | Compound metabolized |  |  |  | Compound metabolized |  | Compound metabolized | Compound metabolized |  | 
9 | CN1CCN(CC/C=C2/c3ccccc3Sc3ccc(S(=O)(=O)N(C)C)cc32)CC1 [THIOTHIXENE] |  | Compound metabolized | Compound metabolized |  | Compound metabolized | Compound metabolized | Compound metabolized | Compound metabolized | Compound metabolized | Compound metabolized |  |  |  | Compound metabolized |  | Compound NOT metabolized | Compound metabolized |  | 
10 | Cc1ccc(/C(=C\CN2CCCC2)c2ccccn2)cc1 [TRIPROLIDINE] | Compound NOT metabolized | Compound NOT metabolized | Compound NOT metabolized |  | Compound NOT metabolized | Compound NOT metabolized | Compound NOT metabolized | Compound NOT metabolized | Compound metabolized | Compound NOT metabolized | Compound NOT metabolized | Compound NOT metabolized | Compound NOT metabolized | Compound metabolized | Compound NOT metabolized | Compound NOT metabolized | Compound metabolized | Compound NOT metabolized | Compound NOT metabolized
11 | CS(=O)(=O)O.O.O.O.O=C1Cc2cc(CCN3CCN(c4nsc5ccccc45)CC3)c(Cl)cc2N1 [ZIPRASIDONE MESYLATE] |  | Compound NOT metabolized | Compound metabolized |  | Compound metabolized | Compound NOT metabolized | Compound metabolized | Compound NOT metabolized | Compound metabolized | Compound NOT metabolized |  |  |  | Compound metabolized |  | Compound NOT metabolized | Compound metabolized |  | 
